# Counter-ions that a name gives are not always drawn.
# Experiments:
# [1] = Administration to premenopausal healthy females for 14 days; format: in vivo, human; conditions: 32 premenopausal healthy females (20 to 45 years old), 1 to 25 mg/day for 14 days
# Protocol: To 32 premenopausal healthy females (20 years old to 45 years old), 1 to 25 mg/day of the compound of Reference Example 7 was administered for 14 days. As a result, the serum estradiol concentration was reduced, but hot flash was not observed.
# [2] = biological target: T1, rat GnRH receptor (Rattus norvegicus, UniProt P30969); experiment: 125I-leuprorelin binding inhibition, rat anterior pituitary membrane fraction; conditions: 1 μM compound, 4° C., 90 minutes, read-out: Binding inhibiting rate (%) Rat (1 μM)
# T1 construct: Anterior pituitaries were removed from 40 Whister rats (8 weeks old, male); from tissue; host or cells: rat anterior pituitary membrane fraction
# T1 sequence (P30969 1-327): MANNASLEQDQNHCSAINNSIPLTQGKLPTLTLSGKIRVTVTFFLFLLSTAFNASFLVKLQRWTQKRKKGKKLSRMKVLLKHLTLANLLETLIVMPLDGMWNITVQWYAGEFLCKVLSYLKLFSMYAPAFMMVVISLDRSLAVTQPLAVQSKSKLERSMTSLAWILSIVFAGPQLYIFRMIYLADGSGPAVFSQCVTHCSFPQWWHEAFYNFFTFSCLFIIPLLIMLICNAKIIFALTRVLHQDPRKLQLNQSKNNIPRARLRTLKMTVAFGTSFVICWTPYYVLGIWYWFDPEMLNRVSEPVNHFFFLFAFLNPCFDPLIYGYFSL
hot flash [1],inhibition at 1 µM [2] [%],Compound,serum estradiol concentration [1]
not observed,–,"CONC(=O)Nc1ccc(-c2sc3c(c2CN(C)Cc2ccccc2)c(=O)n(-c2ccccc2)c(=O)n3Cc2c(F)cccc2F)cc1 [Reference Example 7, 5-(N-benzyl-N-methylaminomethyl)-1-(2,6-difluorobenzyl)-6-[4-(3-methoxyureido)phenyl]-3-phenylthieno[2,3-d]pyrimidine-2,4(1H, 3H)-dione]",reduced
–,27,"CONC(=O)Nc1ccc(-c2sc3c(c2CN(C)Cc2ccccc2)c(=O)n(-c2ccccc2)c(=O)n3Cc2c(F)cccc2F)cc1 [Reference Example 8, 5-(N-benzyl-N-methylaminomethyl)-1-(2,6-difluorobenzyl)-6-[4-(3-methoxyureido)phenyl]-3-phenylthieno[2,3-d]pyrimidine-2,4(1H, 3H)-dione hydrochloride]",–
